Measured values published in patent US20240254087A1, “SELECTIVE, PARTIAL, AND ARRESTIN-BIASED 5-HT2A AGONISTS WITH UTILITY IN VARIOUS DISORDERS” (Saint Joseph's University, priority 2021, published 2024).
Where two headings read alike, the source gives them in different places. Starred links: 1 amine or outer side, 2 acyl side, 3 side chain; linkers in the order of their positions; H or OH if unused. Positions of bridges follow the written chain, without caps; N, C: chain ends. Non-standard residues stand in square brackets, D forms with d. Residues, ends and D or L forms follow the SMILES beside them. X1 = CC(=O)NC(C(=O)OC(C(C)C)C(N[*:1])C(=O)[*:2])C(O)C(C)C; PhLac = O=C(O)[CH](O)Cc1ccccc1; NMeT = CN[CH](C(=O)O)[CH](C)O; NMeA = CN[CH](C)C(=O)O; NMeDha = C=C(NC)C(=O)O

Experiments:
[1] = biological target: T1, 5-HT2A (Homo sapiens, UniProt P28223); test: cell-based; set-up: expressed in transfected cells; host or cells: HEK293T, transient
T1 sequence (P28223 whole entry): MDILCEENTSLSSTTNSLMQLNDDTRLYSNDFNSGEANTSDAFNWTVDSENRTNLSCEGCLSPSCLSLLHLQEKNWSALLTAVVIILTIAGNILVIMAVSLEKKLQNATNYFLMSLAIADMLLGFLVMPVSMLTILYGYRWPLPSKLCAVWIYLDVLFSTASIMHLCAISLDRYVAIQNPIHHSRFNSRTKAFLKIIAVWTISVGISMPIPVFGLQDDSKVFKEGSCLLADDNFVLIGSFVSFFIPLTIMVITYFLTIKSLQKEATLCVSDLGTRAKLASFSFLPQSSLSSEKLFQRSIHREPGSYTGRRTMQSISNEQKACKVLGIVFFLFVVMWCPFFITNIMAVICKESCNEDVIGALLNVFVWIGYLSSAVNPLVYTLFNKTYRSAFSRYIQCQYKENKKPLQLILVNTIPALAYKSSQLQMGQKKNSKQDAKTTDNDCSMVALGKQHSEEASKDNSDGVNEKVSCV

[2] = biological target: T2, 5-HT2C (Homo sapiens, UniProt P28335); test: BRET Gq dissociation, 5-HT2C; format: cell-based; set-up: expressed in transfected cells; host or cells: HEK293T, transient
T2 sequence (P28335 33-458): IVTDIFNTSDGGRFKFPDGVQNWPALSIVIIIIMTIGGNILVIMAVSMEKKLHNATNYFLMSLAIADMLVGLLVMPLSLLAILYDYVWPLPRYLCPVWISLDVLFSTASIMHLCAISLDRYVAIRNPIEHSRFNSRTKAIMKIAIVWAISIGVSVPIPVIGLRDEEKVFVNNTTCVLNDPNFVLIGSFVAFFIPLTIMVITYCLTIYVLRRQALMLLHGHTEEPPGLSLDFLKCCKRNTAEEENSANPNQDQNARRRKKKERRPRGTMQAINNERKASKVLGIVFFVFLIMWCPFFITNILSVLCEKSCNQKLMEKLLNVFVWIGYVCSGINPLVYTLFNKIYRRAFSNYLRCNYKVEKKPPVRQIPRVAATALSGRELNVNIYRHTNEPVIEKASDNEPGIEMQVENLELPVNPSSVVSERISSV

[3] = system: male C57BL/6J mice; test: Head-twitch response (HTR) in mice; format: in vivo, mouse; conditions: for ED50: Mus musculus
Method: (§1) Male C57BL/6J mice (6-8 weeks old) from Jackson Labs (Bar Harbor, ME, USA) were used for the behavioral experiments. The mice were housed on a reversed light-dark cycle (lights on at 1900 h, off at 0700 h) in an AAAC-approved vivarium at the University of California San Diego. Mice were housed up to four per cage in a climate-controlled room and with food and water provided ad libitum except during behavioral testing. Testing was performed between 1000 and 1800 h (during the dark phase of the light-dark cycle). The studies were conducted in accordance with National Institutes Health (NIH) guidelines and were approved by the University of California San Diego Institutional Animal Care and Use Committee.
(§2) The mice were allowed to recover from the magnet implantation surgeries for at least 1 week prior to behavioral testing. HTR experiments were conducted in a well-lit room, and the mice were allowed to habituate to the room for at least 1 h prior to testing. Head twitches was assessed in a 12-cm diameter glass cylinder surrounded by a magnetometer coil. Coil voltage was low-pass filtered (2 kHz), amplified, and digitized (20-kHz sampling rate) using a Powerlab/8SP with LabChart v 7.3.2 (ADInstruments, Colorado Springs, CO, USA). […] HTR counts were analyzed using one-way ANOVAs. Dunnett's test was used for post hoc comparisons.

[4] = biological target: T1, 5-HT2A; test: NanoLuc internalization assay; format: cell-based; conditions: 60 min
[5] = system: male C57BL/6J mice; test: Tolerance: DOI-induced HTR after 5 days repeated treatment; format: in vivo, mouse; conditions: 5 days SC: 25N-N1-Nap 20, DOI 10, pimavanserin 1 mg/kg/day
Method: as §2

[6] = biological target: T1, 5-HT2A; conditions: cited from earlier work
[7] = biological target: 5-HT2B (Homo sapiens, UniProt P41595); test: BRET Gq dissociation, 5-HT2B; format: cell-based; set-up: expressed in transfected cells; host or cells: HEK293T, transient
Sequence of 5-HT2B (P41595 whole entry): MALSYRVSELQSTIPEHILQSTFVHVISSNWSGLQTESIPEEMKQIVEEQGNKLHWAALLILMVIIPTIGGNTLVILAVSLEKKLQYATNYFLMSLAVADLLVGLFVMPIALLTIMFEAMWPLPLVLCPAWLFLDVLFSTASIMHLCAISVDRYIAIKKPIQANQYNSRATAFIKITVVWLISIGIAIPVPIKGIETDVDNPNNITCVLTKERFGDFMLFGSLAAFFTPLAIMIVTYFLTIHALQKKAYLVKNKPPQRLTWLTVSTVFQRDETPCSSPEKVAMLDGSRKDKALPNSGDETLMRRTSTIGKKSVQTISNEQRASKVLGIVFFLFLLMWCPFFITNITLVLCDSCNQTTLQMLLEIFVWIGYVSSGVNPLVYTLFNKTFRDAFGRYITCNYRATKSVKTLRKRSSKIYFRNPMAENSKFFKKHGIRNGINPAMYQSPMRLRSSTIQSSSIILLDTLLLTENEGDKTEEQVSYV

[8] = biological target: T1, 5-HT2A; test: cell-based; set-up: expressed in transfected cells; host or cells: HEK293T, transient; conditions: BRET, mean ± SEM; hydrochloride
[9] = system: male C57BL/6J mice; test: Blockade of agonist-induced HTR by pretreatment; format: in vivo, mouse; conditions: C57BL/6J mice; pretreatment with Gq/11 or phospholipase C inhibitor
Method: (§3) Vehicle or the NMDA receptor antagonist PCP (5 mg/kg) was injected IP 10 min after SC administration of vehicle or 25N-NB1-Nap (16), and then the mice were placed in the test chambers 10 min later for a 60-min assessment of locomotor activity. (C). […] Mice were treated with vehicle or M100907 (0.03 mg/kg SC) 10 min prior to vehicle or PCP (5 mg/kg IP): animals were placed in the test chambers 10 min after treatment with PCP.
as §1, §2

[10] = system: mice; test: PCP-induced locomotor hyperactivity; format: in vivo, mouse; conditions: PCP 5 mg/kg IP, 25N-N1-Nap 3 mg/kg SC, M100907 0.03 mg/kg SC
Method: as §3, with “(A). DOI, a hallucinogen and 5-HT2A agonist, was administered IP 10 min after SC administration of vehicle or test drug. A and then HTR activity was assessed for 30 minutes. *p<0.001, significant difference vs. vehicle (B). Vehicle” for “Vehicle”, “PCP. Animals were tested for 60 min. *p<0.01 vs. vehicle: ^#p<0.01 vs. PCP alone.” for “PCP.”
as §1
Edelfosine, DOI, R—(−)-DOI, and PCP were injected IP (5 mL/kg): 25N—NB and its derivatives were injected SC (5 mL/kg or 10 mL/kg): YM-254,890 was injected into the lateral ventricle (2 μL) over 1 min.
The mouse behavioral pattern monitor (BPM) was used to assess locomotor activity. Each mouse BPM chamber (San Diego Instruments, San Diego, CA, USA) is a transparent Plexiglas box with an opaque 30×60 cm floor, enclosed in a ventilated isolation box. The position of the mouse in x.y coordinates is recorded by a grid of 12×24 infrared photobeams located 1 cm above the floor. A second row of 16 photobeams (parallel to the long axis of the chamber, located 2.5 cm above the floor) is used to detect rearing behavior. Holepoking behavior is detected by 11 1.4-cm holes that are situated in the walls (3 holes in each long wall, 2 holes in each short wall) and the floor ([…]); each hole is equipped with an infrared photobeam. The status of each photobeam is sampled every 55 ms and recorded for offline analysis. Locomotor activity was quantified as distance traveled, which was analyzed in 20-min blocks using a three-way ANOVA, with pretreatment and treatment as between subject variables and time as a within-subject variable. Tukey's studentized range method was used for post hoc comparisons.

COc1cc(CC(C)N)c(OC)cc1I.Cl (racemic) [(±)-DOI, (±)-2,5-dimethoxy-4-iodoamphetamine hydrochloride, reference compound]
Emax ([1]; read-out: 5-HT2A β-arrestin Emax (% 5-HT), BRET, mean ± SEM): 88.8 ± 1.9% | EC50 [2]: 0.832 nM | Emax ([2]; read-out: 5-HT2C Gq Dissociation (BRET) EMAX ± SEM (%5-HT)): 114 ± 3.4% | Max HTR response during a 30-min assessment (maximum counts ÷ baseline response) [3]: 9.9-fold increase | ED50 ([3]; read-out: HTR ED50 μmol/kg (95% CI), SC, except DOI and 25D-NBOMe IP): 0.8 µmol/kg | ED50 ([3]; read-out: HTR ED50 mg/kg (95% CI), SC, except DOI and 25D-NBOMe IP): 0.29 mg/kg | Internalization of 5-HT2A receptors [4]: strong internalization | Ability of DOI (1 mg/kg IP) to induce the HTR after repeated daily treatment [5]: reduced significantly | Emax in a 5-HT2A-Gq calcium flux assay [6]: 81.3% | EC50 [7]: 12.6 nM | Emax ([7]; read-out: 5-HT2B Gq Dissociation (BRET) EMAX ± SEM (%5-HT)): 103 ± 2.8% | 5-HT2A Gq Emax (% 5-HT) [8]: 108.2 ± 4.2 % 5-HT

C=C1C(=O)NC(C)C(=O)N(C)C(C)C(=O)NC(C(OC(=O)C(NC(C)=O)C(O)C(C)C)C(C)C)C(=O)N(C)C(C(C)OC)C(=O)OC(C)C(NC(C)=O)C(=O)OC(Cc2ccccc2)C(=O)N1C (stereo not drawn) [YM-254,890, reference compound] (Ac-T[PhLac][NMeDha]A[NMeA][X1][NMeT](Me); ester 1-C; configuration not given here)
Blockade of the HTR induced by (+/−)-DOI and 25N-NBOMe [9]: blocked

CC(C)COc1ccc(CNC(=O)N(Cc2ccc(F)cc2)C2CCN(C)CC2)cc1 [Pimavanserin]
Ability of DOI (1 mg/kg IP) to induce the HTR after repeated daily treatment [5]: not altered

CCN(CC)C(=O)[C@@H]1C=C2c3cccc4[nH]cc(c34)C[C@H]2N(C)C1 [LSD, reference compound]
5-HT2A β-arrestin Emax (% 5-HT) ([1]; BRET, mean ± SEM): 85 ± 3 % 5-HT | Emax in a 5-HT2A-Gq calcium flux assay [6]: 84.6%

COc1cccc([C@H](O)C2CCN(CCc3ccc(F)cc3)CC2)c1OC [Compound M100907, reference compound]
Effect on PCP-induced locomotor hyperactivity [10]: blocks PCP induced hyperactivity | Effect on PCP-induced locomotor hyperactivity ([10]; listed as M100,907): blocked
